Key:
Type in all cases: in vivo, mouse
[1] = system: spleen and lymph nodes of EAE mice; assay: EAE, cell number in spleen and lymph nodes, flow cytometry of CD4 T cells; details: ORY-2001 0.5 mg/kg; for CD4+ T cell population of the lymph nodes / cellularity in lymph nodes / number of effector T cells in lymph nodes: FTY720 1.0 mg/kg
From the text: (§1) For mechanistic studies in the EAE model, animals were divided into two groups, and samples were collected on day 26 post-immunization (sub-chronic phase), 3 days after the last dose, or on day 17 post-immunization for evaluating the effector phase. For this, mice were euthanized by intracardiac perfusion with saline (0.9%NaCl in H2O MilliQ) after pentobarbital anesthesia (Doletal), and blood samples, spleen, draining lymph nodes (DLNs: cervical, inguinal and axillary), brain, and spinal cord were removed. Serum samples were used for autoantibodies determination. Single-cell suspensions were obtained from spleen or pooled DLNs and used for the determination of cell number and auto-reactive and inflammatory responses, as described later. Brain and spinal segments of the cervical and lumbar regions were prepared separately and processed for RNA isolation, protein extraction, and histopathological analysis. Proteins were extracted from cervical and lumbar segments of spinal cord and brain from EAE mice via homogenization (50 mg tissue/mL) in lysis buffer (50 mM Tris-HCl, pH 7.4, 0.5 mM DTT, and 10 µg/mL proteinase inhibitors PMSF, pepstatin, and leupeptin). Samples were centrifuged (20.000× g, 15 min, 4 °C), and the supernatants were assayed for protein concentration (using Bradford method) and for cytokine/chemokine contents by using specific sandwich ELISAs according to manufacturer’s recommendations (BD Bioscience, Heidelberg, Germany and Peprotech, London, UK). In the TMEV model on day 86 after infection, mice were anesthetized and perfused transcardially, as described above. Spinal cords were obtained via extrusion with saline and prepared for further study.
For the identification of naïve, memory, and effector T cells, lymph nodes were isolated from different EAE groups at the peak of the disease. Cells were collected and distributed into polystyrene tubes for flow cytometry at 0.5 × 10^6 cells/tube and washed twice with washing buffer (10% FBS, 1% sodium azide in PBS; 300 g 5 min 4 °C). Before specific staining, cells were blocked with mouse BD Fc block to avoid nonspecific binding to Fc- receptors and marked with 7-AAD (7-amino-actinomycin D, Calbiochem, San Diego, CA, USA) to distinguish dead cells. Then, cells were incubated with PerCP/Cy5.5 conjugated anti-CD4, APC conjugated anti- CD62L (2 µg/mL), and PE conjugated anti-CD44 mAbs (0.5 µg/mL), following manufacturer’s recommendations (BioLegend) (Supplementary Materials Table S4). Briefly, after washing, cells were stained for 30 min at 4 °C, washed again, and analyzed in a FACSCalibur flow cytometer (BD Pharmingen, Le Pont-de-Claix, France). We used isotype-matched antibodies as controls.

spinal cord of EAE mice = assay: EAE, inflammatory mediators in spinal cord protein extracts (ELISA); details: ORY-2001 0.5 mg/kg; for IFNγ and IP-10 levels in spinal cord / IL-1β levels in spinal cord: disease peak, FTY720 1.0 mg/kg
From the text: as §1

[2] = system: C57BL/6 mice with chronic EAE; assay: Chronic EAE induced by MOG35–55, clinical score; details: for mean clinical score: EAE effector phase, p.o. 5 days from day 12, FTY720 1.0 mg/kg
Description: Mice also received i.p. injections of 200 ng of pertussis toxin on days 0 and 2 [32]. Immunized mice were randomly distributed in different groups. […] MPTP is a prodrug which is converted to the neurotoxin 1-methyl-4-phenylpyridinium (MPP+) by MAO-B in vivo.
Compounds were administered once daily for five consecutive days in two cycles, from day 12 to 16 and from day 19 to 23 post-immunization. […] HPβCD was included to facilitate dissolution. Mice were scored daily for signs of EAE according to the following clinical scoring system: 0, no clinical signs; 0.5, partial loss of tail tonicity; 1, complete loss of tail tonicity; 2, flaccid tail and abnormal gait; 3, complete hind leg paralysis; 4, hind leg paralysis with hind body paresis; 5, hind and foreleg paralysis; and 6, death. Intermediate phenotypes were scored as a half integer. Animals were sacrificed when they kept a score of 5 more than 24 h. Investigators which administered the compounds and scored the animals were blinded to the treatments.

[3] = EAE experiment 2, 0.5 or 1 mg/kg ORY-2001

Structure (SMILES): Nc1nnc(CN[C@@H]2C[C@H]2c2ccc(OCc3ccccc3)cc2)o1 [ORY-2001]
- cellularity in spleen ([1]; day 17): increased it significantly in the spleen
- CD4+ T cell population of the lymph nodes ([1]; day 17): increased the CD^4+ T cell population of the lymph nodes
- cellularity in lymph nodes ([1]; day 17): increased the cellularity in lymph nodes
- number of effector T cells in lymph nodes ([1]; day 17): significantly increased
- number of immune cells in spleen and lymph nodes ([1]; day 26, ORY-LSD1 180 µg/kg): significant increase in the number of immune cells
- IFNγ, IL-17 and IP-10 levels in spinal cord (spinal cord of EAE mice; day 26, ORY-LSD1 180 µg/kg): no significant changes
- IL-4 levels in spinal cord (spinal cord of EAE mice; day 26, ORY-LSD1 180 µg/kg): significant increase in the levels of IL-4
- IFNγ and IP-10 levels in spinal cord (spinal cord of EAE mice): this decrease did not reach significance
- IL-1β levels in spinal cord (spinal cord of EAE mice): significantly reduced the exacerbated levels of IL-1β
- mean clinical score ([2]; ORY-2001 0.5 mg/kg): reduced the mean clinical score
- animals with mild clinical signs (clinical score ≤ 2) ([2]; EAE experiment 1 (severe), p.o. ORY-2001 1 mg/kg): 60%
- effect on disease severity ([2]; EAE experiment 1 (severe), p.o. ORY-2001 1 mg/kg, ORY-LSD1 180 µg/kg): significantly reduced disease severity
- animals with severe manifestations/signs of the disease ([2]; EAE experiment 1 (severe), p.o. ORY-2001 1 mg/kg, ORY-LSD1 180 µg/kg (maximum clinical score ≥ 4.0)): 10%
- mean maximum clinical score ([2]; EAE experiment 1 (severe), p.o. ORY-2001 1 mg/kg, ORY-LSD1 180 µg/kg, days 12-16 and 19-23): 1.8
- mice with no or only mild clinical signs at the end of the study ([2]; EAE experiment 2): 70–80%
- effect on clinical course / disease severity ([2]; EAE experiment 2 (mild), p.o. ORY-2001 0.05, 0.5, 1 mg/kg, ORY-LSD1 90, 180 µg/kg, rasagiline 3 mg/kg): significantly reduced disease severity
- mice with mild clinical signs [2, 3]: 50%
- mice with no clinical signs [2, 3]: 10%
- duration of protection after short term treatment ([2]; EAE experiment 2, 40 days after disease onset): long-lasting protective effect
- animals with severe signs (maximum clinical score 3.5–6) ([2]; EAE experiment 2, highest dose tested): none
- relapse ([2]; EAE experiment 2, lowest dose 0.05 mg/kg): suffered a relapse during the last week of follow-up
- clinical signs at the peak of the disease ([2]; EAE sub-chronic phase, to day 26, p.o. ORY-2001 0.5 mg/kg, ORY-LSD1 180 µg/kg): reduced the clinical signs
- severity of symptoms in treated mice ([2]; EAE sub-chronic phase, ORY-2001 0.5 mg/kg): displayed only mild symptoms

Structure (SMILES): CCCCCCCCc1ccc(CCC(N)(CO)CO)cc1 [FTY720, Fingolimod, reference compound]
- CD4+ T cell population of the lymph nodes ([1]; day 17): increased the CD^4+ T cell population of the lymph nodes
- cellularity in lymph nodes ([1]; day 17): increased the cellularity in lymph nodes
- number of effector T cells in lymph nodes ([1]; day 17): significantly increased
- IFNγ and IP-10 levels in spinal cord (spinal cord of EAE mice): this decrease did not reach significance
- IL-1β levels in spinal cord (spinal cord of EAE mice): showed the same tendency
- mean clinical score ([2]; ORY-2001 0.5 mg/kg): reduced the mean clinical score
